Reference: US10537567B2, “Kinase inhibitors for treatment of disease” (BioAxone BioSciences, Inc., priority 2017, dated 2020)
“Also recorded” adds a separate entry of the source.

Assays:
[1] = cited from earlier work
[2] = clinical studies; cited from earlier work
PKA [3] = molecular target: T1, PKA (Homo sapiens, UniProt P17612); conditions: cited from earlier work
[4] = followed 24 months; cited from earlier work
ROCK1 [5] = molecular target: T2, ROCK1 (Homo sapiens, UniProt Q13464); test: IC50 determined at 10 μM ATP; type: biochemical; design: purchased Eurofins Testing (Dundee, Scotland, UK); conditions: 10 μM ATP (below Km)
468-target kinome screen = test: DiscoverX kinome screen, off-target hits; type: binding, human; conditions: 10,000 nM API; for # Hits <10% binding: hit = less than 10% binding (>90% binding inhibition)
Description: (§1) A 468-target kinome screen and a safety screen were carried out to examine the off-target profiles of different kinase inhibitors (DiscoverX, Freemont, Calif.). The kinome screen is a binding assay where API interference of kinase domain/substrate binding is assessed as percent of control. Less than 10% binding (or >90% binding inhibition) is most biologically relevant and considered as a ‘hit’. BA-2017 only had 7 off-target hits compared to BA-1049 and Netarsudil, which both had 11 hits (Table 1) (Studirvant et al. 2016 Bioorg Med Chem Lett. 26(10):2475-2480). […] Published data for Netarsudil were with 200 times less API. […] The NET activity likely helps to decrease IOP but might increase hyperemia, while the SERT activity might have long-term safety consequences (Costagliola et al. 2004 CNS drugs 18(8): p. 475-484).
(§2) In the kinome screen BA-2017 had fewer off-target hits (Table 1) than BA-1049. […] An interesting hit from the kinome screen was on Abl (Table 1), an oncogene that also regulates many cellular activities, including vascular leakage.

ROCK1 [6] = molecular target: T2, ROCK1; test: DiscoverX kinome screen; type: binding; design: are incubated with DNA-tagged kinase domains tagged; DNA tag; purchased DiscoverX; conditions: 10,000 nM API
Description: as §1, §2
Target sequence in this assay (Q13464 76-338 limits assumed): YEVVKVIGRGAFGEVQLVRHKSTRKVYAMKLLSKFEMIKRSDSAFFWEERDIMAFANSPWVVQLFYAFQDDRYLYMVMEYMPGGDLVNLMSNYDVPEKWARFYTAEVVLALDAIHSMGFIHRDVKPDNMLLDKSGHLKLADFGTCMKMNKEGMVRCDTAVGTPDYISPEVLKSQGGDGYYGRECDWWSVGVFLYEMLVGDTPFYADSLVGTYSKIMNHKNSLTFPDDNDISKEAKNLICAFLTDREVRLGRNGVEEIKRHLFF

ROCK2 [7] = molecular target: T3, ROCK2 (Homo sapiens, UniProt O75116); test: DiscoverX kinome screen; type: binding; design: are incubated with DNA-tagged kinase domains tagged; DNA tag; purchased DiscoverX; conditions: 10,000 nM API
Description: as §1, §2
Target sequence in this assay (O75116 92-354 limits assumed): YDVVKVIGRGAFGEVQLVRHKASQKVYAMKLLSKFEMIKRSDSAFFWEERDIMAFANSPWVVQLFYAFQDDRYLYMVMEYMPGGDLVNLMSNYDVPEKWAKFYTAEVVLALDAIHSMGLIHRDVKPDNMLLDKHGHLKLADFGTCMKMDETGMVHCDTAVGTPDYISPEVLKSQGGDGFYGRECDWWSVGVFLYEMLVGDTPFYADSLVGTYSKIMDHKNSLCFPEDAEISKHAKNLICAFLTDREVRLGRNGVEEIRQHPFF

[8] = Oral dosing of cynomolgus monkeys, systemic side effects; type: in vivo; conditions: 18 mg/kg oral gavage, 4 monkeys
Description: Oral dosing of 4 cynomolgus monkeys dosed with 18 mg/kg oral BA-1049 by oral gavage were completed to understand potential systemic side effects. The only side effects noticed at this dose was squinting by the monkeys.

PKA [9] = molecular target: T1, PKA; test: Single dose inhibition assay of key AGC class kinases; type: biochemical; conditions: 10 μM API
Description: Molecular modeling and rational drug design were used to create and screen over 50 ROCK inhibitors. These ROCK inhibitors were screened for selectivity for ROCK2 and ability to promote neurite outgrowth. Several lead inhibitors came out of this screen and further screened for inhibition of key AGC class kinases by a single dose inhibition assay performed with 10 μM active pharmaceutical ingredient (API). The lead compound is chiral. […] They have different selectivity for ROCK2 (Table 2) and different off-target profiles (Table 1; FIG. 1).

ROCK2 [10] = molecular target: T3, ROCK2; test: IC50 determined at 10 μM ATP; type: biochemical; design: purchased Eurofins Testing (Dundee, Scotland, UK); conditions: for IC50: 10 μM ATP (below Km), * = preliminary
From the text: The data in Table 2 were obtained at ATP concentration below those corresponding to Km.
Target sequence in this assay (O75116 whole entry, the tested form may be a part): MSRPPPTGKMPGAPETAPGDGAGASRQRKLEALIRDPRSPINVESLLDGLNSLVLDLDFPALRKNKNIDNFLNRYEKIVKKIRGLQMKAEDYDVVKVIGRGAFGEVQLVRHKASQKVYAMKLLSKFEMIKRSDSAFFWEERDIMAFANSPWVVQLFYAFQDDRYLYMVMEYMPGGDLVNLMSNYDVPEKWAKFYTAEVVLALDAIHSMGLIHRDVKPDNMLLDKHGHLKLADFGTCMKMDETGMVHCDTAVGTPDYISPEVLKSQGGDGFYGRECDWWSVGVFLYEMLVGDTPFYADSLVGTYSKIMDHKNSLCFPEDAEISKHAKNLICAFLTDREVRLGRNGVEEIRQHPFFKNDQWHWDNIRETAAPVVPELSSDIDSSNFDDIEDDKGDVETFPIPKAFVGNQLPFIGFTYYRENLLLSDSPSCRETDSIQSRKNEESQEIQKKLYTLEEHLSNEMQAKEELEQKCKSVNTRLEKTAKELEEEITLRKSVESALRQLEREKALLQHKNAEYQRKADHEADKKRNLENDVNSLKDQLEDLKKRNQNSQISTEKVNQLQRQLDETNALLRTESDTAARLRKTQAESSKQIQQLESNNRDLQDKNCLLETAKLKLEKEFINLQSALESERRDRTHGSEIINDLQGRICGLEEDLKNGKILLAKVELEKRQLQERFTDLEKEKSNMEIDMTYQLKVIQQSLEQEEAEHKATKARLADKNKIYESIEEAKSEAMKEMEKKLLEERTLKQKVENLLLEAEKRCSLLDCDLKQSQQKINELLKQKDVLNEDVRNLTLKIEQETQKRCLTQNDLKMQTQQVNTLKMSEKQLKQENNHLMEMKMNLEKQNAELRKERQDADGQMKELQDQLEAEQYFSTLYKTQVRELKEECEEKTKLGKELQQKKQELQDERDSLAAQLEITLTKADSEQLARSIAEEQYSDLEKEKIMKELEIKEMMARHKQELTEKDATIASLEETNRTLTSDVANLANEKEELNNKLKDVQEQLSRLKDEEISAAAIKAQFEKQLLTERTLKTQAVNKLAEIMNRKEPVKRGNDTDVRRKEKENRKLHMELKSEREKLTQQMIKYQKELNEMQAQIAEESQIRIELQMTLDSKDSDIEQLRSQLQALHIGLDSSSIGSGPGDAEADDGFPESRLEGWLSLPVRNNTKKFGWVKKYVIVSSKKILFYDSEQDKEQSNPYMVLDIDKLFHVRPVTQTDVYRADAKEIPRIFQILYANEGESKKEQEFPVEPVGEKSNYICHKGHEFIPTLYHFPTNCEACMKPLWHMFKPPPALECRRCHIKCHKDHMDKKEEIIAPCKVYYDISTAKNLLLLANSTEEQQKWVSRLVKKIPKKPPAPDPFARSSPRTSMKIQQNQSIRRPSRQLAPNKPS

PKC Δ = molecular target: T4, PKC Δ (Homo sapiens, UniProt Q05655); test: DiscoverX kinome screen; type: binding; conditions: 10,000 nM API
T4 construct: are incubated with DNA-tagged kinase domains tagged; DNA tag; purchased DiscoverX
T4 sequence (Q05655 349-603 limits assumed, stated change not applied): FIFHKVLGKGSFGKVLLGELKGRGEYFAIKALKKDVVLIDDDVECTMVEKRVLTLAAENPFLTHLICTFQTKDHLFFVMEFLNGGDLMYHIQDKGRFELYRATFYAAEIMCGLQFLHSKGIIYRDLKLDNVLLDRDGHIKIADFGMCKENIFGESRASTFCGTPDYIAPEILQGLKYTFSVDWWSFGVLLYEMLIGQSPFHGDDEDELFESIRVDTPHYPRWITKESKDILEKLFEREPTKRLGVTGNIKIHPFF
Description: as §1, §2

PKC ε = molecular target: T5, PKC ε (Homo sapiens, UniProt Q02156); test: DiscoverX kinome screen; type: binding; conditions: 10,000 nM API
T5 construct: are incubated with DNA-tagged kinase domains tagged; DNA tag; purchased DiscoverX
T5 sequence (Q02156 408-668 limits assumed): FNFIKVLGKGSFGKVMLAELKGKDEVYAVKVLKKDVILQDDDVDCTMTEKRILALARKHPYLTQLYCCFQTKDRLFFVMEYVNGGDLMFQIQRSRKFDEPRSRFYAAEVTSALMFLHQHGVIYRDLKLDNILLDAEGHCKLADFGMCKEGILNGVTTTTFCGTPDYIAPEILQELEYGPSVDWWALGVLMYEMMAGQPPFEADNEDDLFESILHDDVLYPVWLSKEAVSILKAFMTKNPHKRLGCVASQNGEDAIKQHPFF
Description: as §1, §2

GRK1 = molecular target: T6, GRK1 (Homo sapiens, UniProt Q15835); test: DiscoverX kinome screen; type: binding
T6 construct: are incubated with DNA-tagged kinase domains tagged; DNA tag; purchased DiscoverX
T6 sequence (Q15835 190-455 limits assumed): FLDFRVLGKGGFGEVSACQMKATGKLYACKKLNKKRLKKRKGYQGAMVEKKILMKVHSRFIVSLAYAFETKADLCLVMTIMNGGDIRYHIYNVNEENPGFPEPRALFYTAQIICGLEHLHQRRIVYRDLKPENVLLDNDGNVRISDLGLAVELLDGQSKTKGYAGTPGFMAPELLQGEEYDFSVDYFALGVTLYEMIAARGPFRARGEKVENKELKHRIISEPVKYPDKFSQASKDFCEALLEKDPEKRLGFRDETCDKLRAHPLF
Description: as §1, §2

ROCK2 [11] = molecular target: T3, ROCK2; test: Direct filter-binding radiometric kinase assay (Eurofins) at Km ATP; type: biochemical; design: purchased Eurofins Testing (Dundee, Scotland, UK); conditions: for ROCK1/ROCK2 (fold difference): IC50 at respective Km ATP
Description: ROCK1 and ROCK2 IC50 determinations were made using ATP concentrations at the Km ATP of 70 μM and 15 μM for ROCK1 and ROCK2, respectively.
For the data shown in Table 4, IC50 inhibition curves were performed at the respective Km for ATP for both ROCK1 and ROCK2. Performing these assays at the Km of ATP gives a better representation of the inhibitory activity. Other comparisons where differing kinases are tested at a single ATP concentration can potentially misrepresent the comparative efficacy since enzyme inhibitory activity tested below the Km for ATP of the enzyme, produces a circumstance where the enzyme is actually not constantly bound with ATP and the reaction velocity becomes sub-optimal.
Target sequence in this assay (O75116 whole entry, the tested form may be a part): as the sequence (O75116 whole entry, the tested form may be a part) above

[12] = molecular target: T7, norepinephrine transporter (NET) (Homo sapiens, UniProt P23975); test: Safety screen; type: biochemical; conditions: 10,000 nM API
T7 construct: purchased DiscoverX
T7 sequence (P23975 whole entry): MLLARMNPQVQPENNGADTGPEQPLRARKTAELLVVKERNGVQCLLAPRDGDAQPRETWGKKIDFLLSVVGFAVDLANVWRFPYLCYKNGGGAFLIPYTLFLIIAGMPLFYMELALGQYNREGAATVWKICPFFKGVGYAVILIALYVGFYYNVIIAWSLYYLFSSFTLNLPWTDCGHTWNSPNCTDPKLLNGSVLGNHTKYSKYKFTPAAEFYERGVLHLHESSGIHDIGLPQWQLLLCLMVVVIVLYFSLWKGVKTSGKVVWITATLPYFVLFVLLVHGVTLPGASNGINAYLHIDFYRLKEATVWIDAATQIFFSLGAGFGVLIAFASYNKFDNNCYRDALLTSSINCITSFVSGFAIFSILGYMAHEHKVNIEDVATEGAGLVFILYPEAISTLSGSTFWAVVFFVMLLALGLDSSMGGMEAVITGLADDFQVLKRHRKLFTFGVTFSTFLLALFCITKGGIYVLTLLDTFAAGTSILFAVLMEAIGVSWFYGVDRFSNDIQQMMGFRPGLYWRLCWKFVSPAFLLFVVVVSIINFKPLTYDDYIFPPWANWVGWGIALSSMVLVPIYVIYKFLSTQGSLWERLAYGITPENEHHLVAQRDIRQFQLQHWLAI
Description: as §1
(§3) These targets include GPCRs, transporters, ion channels, nuclear receptors, non-kinase enzymes.

[13] = molecular target: T8, serotonin transporter (SERT) (Homo sapiens, UniProt P31645); test: Safety screen; type: biochemical; conditions: 10,000 nM API
T8 construct: purchased DiscoverX
T8 sequence (P31645 whole entry): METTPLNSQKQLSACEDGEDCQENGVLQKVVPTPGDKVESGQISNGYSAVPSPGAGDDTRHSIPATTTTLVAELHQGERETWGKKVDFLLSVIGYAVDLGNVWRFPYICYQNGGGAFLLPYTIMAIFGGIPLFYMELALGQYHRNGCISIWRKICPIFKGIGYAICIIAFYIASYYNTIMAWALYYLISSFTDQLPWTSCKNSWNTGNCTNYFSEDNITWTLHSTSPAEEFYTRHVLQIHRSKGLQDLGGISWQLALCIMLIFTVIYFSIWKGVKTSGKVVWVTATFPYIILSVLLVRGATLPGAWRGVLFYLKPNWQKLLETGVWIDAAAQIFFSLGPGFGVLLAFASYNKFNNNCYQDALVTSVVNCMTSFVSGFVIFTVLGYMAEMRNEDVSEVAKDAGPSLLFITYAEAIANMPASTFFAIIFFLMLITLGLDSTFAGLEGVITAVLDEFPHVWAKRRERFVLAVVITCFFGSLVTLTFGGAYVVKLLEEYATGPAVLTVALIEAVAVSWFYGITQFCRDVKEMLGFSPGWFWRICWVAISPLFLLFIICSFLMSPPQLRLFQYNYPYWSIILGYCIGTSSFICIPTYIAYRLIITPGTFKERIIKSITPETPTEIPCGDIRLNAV
Description: as §1, §3

[14] = Brain and blood vessel exposure after oral administration; type: in vivo, Sprague Dawley rats
Description: (§4) Adult Sprague Dawley rats (Charles River Laboratories) were used for this experiment. […] One g of tissue was homogenized in 1 mL of 1×PBS. Homogenates were precipitated by pipetting 200 μL of homogenate into a tube using aseptically cut off 1000 μL pipette tips to prevent clogging. Samples are further diluted with 100 μL PBS to aid in precipitation. 900 μL of cold methanol was added to each sample and samples were vortexed for 5 to 10 seconds. Samples were placed at 4° C. for 30 to 40 min and then centrifuged at 10,000 g for 15 min at 4° C. The supernatant is collected and stored at −80° C. until analyzed.
Pathological angiogenesis that occurs in the retina is a major feature of leading blinding diseases, and particularly associated with diabetic retinopathy and age-related macular degeneration.

PKA, PKC and CaMKII = conditions: cited from earlier work
[15] = Penetration and distribution in ocular tissues after topical instillation (LC-MS); type: in vivo, Sprague Dawley rats; conditions: topical 3% solution of metabolite, 20 minutes
Description: as §4
For the optic nerve sample, the concentration is shown per length of optic nerve (right y-axis). […] Therefore, drug is available in the retina and optic nerve for treating these tissues affected in glaucoma and other retinal diseases.
In FIG. 14 we examined the ability of metabolite to penetrate the ocular tissues of the eye after topical instillation of a 3% solution of metabolite. In comparison with FIG. 13, that also the metabolite has adequate penetration into ocular and CNS tissue. Of particular note is the penetration in the retina and presence in the optic nerve. All compounds were given topically as eye drops to the eye of adult Sprague Dawley rats. Twenty minutes later the indicated tissues were removed and the parent compound and active metabolite were analyzed by LC/MS.

| Structure (SMILES) | Hyperemia in humans [2] | Kinome Screen Other (other off-target kinase) (468-target kinome screen) | # Hits <10% binding (468-target kinome screen) | Kinome Screen % inhibition ROCK1 (ROCK1 [6]) [%] | Kinome Screen % inhibition ROCK2 (ROCK2 [7]) [%] | IC50 (ROCK2 [10]) [nM] | Kinome Screen % inhibition PKC Δ (PKC Δ) [%] | Kinome Screen % inhibition PKC ε (PKC ε) [%] | ROCK1/ROCK2 (fold difference) (ROCK2 [11]) | Safety Screen % inhibition NET [12] | Safety Screen % inhibition SERT [13] | Exposure in blood vessels [14] | other results |
| --- | --- | --- | --- | --- | --- | --- | --- | --- | --- | --- | --- | --- | --- |
| Cc1ccc(C(=O)OCc2ccc([C@@H](CN)C(=O)Nc3ccc4cnccc4c3)cc2)c(C)c1 [Netarsudil] | cause hyperemia (red eyes) as a major side effect |  |  |  |  |  |  |  |  |  |  |  | Duration of hyperemia on day 1 ([1]; 0.04% Netarsudil): at least 8 hours; Duration of mild hyperemia ([1]; Dutch belted rabbits): 4 to 8 h |
| C[C@@H](N)[C@H]1CC[C@H](C(=O)Nc2ccncc2)CC1 [Compound Y-27632, Y-27632] |  |  |  |  |  |  |  |  |  |  |  |  | Binding to PKA (PKA [3]): all bind PKA |
| C[C@@H](N)[C@H]1CC[C@H](C(=O)Nc2ccncc2)CC1 [Compound Y27432, Y27432] |  |  |  |  |  |  |  |  |  |  |  |  | Corneal clarity and vision [4]: corneal clarity improved and vision improved |
| C[C@@H](N)C1CCN(S(=O)(=O)c2cccc3cnccc23)CC1 [BA-1049] |  | none | 11 | >99 | >99 | 240 | <70 | 95 | 43.4 | none | none | accumulate at high concentrations in blood vessels | IC50 (ROCK1 [5]): 3900 nM; Side effects [8]: squinting; Inhibition of PKA (PKA [9]): Neither compound inhibited PKA; Fold-difference (ROCK2 [10]; ROCK1 vs ROCK2 IC50 at 10 μM ATP): 16; Off-target activity on GRK1 (GRK1): has some activity toward G-protein couple protein kinase1; also recorded: showed binding to G-protein couple protein kinase1 (GRK1); IC50 (ROCK2 [11]; ATP at Km, 15 μM, * = higher purity BA-1076): 599 nM; Brain penetrance [14]: is able to cross the blood brain barrier |
| C[C@H]1CNCCCN1S(=O)(=O)c1cccc2cncc(F)c12 [Ripasudil] | more frequent and of longer duration than Netarsudil; also recorded: cause hyperemia (red eyes) as a major side effect |  |  |  |  |  |  |  |  |  |  |  | Inhibition of PKA, PKC and CaMKII (PKA, PKC and CaMKII): both inhibit PKA, PKC and CaMKII |
| C[C@@H](N)C1CCN(S(=O)(=O)c2cccc3c(=O)[nH]ccc23)CC1 [BA-2017] |  | GRK1 | 7 | >99 | >99 | 50 | <85 | 94.7 | 16.5 | none | none | accumulate at high concentrations in blood vessels | Penetration into ocular tissues [15]: can penetrate ocular tissue |
